# Reference: ChEMBL document CHEMBL1201862, “PubChem BioAssay data set” (2004)
# The source made the active and inactive calls.
# Key:
# [1] = Concentration-dependent survival of SW480 colon cancer line, luminescence detection with CellTiter-Glo, half-maximal inhibitory concentration (AID 1117338); assay type: functional
# [2] = RKO cell viability reduction, dose response, CellTiter-Glo luminescence (AID 1117322); assay type: functional
# [3] = cytotoxicity toward HCT116 cells – cell-based, CellTiter-Glo luminescence, IC50, dose response (AID 1117332); assay type: functional; conditions: HCT-116
# [4] = SNU-C1 cell viability reduction, dose response, CellTiter-Glo luminescence (AID 1117323); assay type: functional, cell-based
# [5] = cytotoxicity toward Colo320 cells – cell-based, CellTiter-Glo luminescence, IC50, dose response (AID 1117334); assay type: functional; conditions: COLO 320
# [6] = cytotoxicity toward HT-29 cells – cell-based, CellTiter-Glo luminescence, IC50, dose response (AID 1117330); assay type: functional
# [7] = CellTiter-Glo luminescent dose response of DLD-1 viability loss (AID 1117352); assay type: functional
# Caspase-3 = biological target: T1, Caspase-3 (Homo sapiens, UniProt P42574); assay type: functional;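 further: Dose-response selectivity test against caspase-3 for candidate inhibitors of sentrin-specific proteases (SENPs)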
# T1 sequence (P42574 whole entry): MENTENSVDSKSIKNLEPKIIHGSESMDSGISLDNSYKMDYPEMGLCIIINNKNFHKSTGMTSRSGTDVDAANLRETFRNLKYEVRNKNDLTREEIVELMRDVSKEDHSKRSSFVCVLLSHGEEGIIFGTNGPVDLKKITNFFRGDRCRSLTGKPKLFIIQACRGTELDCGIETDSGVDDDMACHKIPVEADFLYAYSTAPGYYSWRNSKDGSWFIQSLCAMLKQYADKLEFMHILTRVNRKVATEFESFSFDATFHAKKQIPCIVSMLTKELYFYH
# [8] = biological target: T2, Sentrin-specific protease 7 (Homo sapiens, UniProt Q9BQF6); assay type: functional;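 further: Luminescence-based dose-response confirmation of ultra-high-throughput screening hits, measuring inhibition of SENP7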
# T2 sequence (Q9BQF6 whole entry): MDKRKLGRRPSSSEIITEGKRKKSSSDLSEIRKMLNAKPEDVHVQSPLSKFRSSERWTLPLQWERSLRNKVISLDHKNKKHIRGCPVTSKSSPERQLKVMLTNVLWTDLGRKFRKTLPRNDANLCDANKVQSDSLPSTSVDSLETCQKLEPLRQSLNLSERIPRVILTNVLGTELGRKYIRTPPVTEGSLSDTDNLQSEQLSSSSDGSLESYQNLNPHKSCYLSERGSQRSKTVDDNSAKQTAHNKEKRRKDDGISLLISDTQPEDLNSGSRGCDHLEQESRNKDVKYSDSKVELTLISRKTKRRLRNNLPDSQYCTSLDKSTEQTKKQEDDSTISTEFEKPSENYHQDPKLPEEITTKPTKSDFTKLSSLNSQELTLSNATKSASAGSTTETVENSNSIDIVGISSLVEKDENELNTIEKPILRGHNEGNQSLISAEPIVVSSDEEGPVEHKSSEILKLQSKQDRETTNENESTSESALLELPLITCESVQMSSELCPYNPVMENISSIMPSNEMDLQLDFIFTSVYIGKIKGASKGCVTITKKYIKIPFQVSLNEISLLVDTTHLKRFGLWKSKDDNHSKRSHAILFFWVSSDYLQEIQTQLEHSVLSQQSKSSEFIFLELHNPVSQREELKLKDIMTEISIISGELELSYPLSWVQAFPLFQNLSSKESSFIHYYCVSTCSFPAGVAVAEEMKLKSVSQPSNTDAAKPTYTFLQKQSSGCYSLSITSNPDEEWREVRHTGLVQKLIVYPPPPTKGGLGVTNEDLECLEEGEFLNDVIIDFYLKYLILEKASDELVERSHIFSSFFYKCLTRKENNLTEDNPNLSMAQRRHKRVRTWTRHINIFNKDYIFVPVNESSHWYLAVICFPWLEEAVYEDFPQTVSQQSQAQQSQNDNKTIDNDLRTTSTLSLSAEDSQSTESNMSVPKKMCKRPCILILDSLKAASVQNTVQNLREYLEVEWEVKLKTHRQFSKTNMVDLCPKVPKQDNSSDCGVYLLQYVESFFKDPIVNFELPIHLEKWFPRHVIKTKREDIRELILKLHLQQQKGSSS
# [9] = biological target: T3, Sentrin-specific protease 6 (Homo sapiens, UniProt Q9GZR1); assay type: functional;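 further: Luminescence-based dose-response confirmatory assay of SENP6 inhibition, following up an ultra-high-throughput screen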
# T3 sequence (Q9GZR1 whole entry): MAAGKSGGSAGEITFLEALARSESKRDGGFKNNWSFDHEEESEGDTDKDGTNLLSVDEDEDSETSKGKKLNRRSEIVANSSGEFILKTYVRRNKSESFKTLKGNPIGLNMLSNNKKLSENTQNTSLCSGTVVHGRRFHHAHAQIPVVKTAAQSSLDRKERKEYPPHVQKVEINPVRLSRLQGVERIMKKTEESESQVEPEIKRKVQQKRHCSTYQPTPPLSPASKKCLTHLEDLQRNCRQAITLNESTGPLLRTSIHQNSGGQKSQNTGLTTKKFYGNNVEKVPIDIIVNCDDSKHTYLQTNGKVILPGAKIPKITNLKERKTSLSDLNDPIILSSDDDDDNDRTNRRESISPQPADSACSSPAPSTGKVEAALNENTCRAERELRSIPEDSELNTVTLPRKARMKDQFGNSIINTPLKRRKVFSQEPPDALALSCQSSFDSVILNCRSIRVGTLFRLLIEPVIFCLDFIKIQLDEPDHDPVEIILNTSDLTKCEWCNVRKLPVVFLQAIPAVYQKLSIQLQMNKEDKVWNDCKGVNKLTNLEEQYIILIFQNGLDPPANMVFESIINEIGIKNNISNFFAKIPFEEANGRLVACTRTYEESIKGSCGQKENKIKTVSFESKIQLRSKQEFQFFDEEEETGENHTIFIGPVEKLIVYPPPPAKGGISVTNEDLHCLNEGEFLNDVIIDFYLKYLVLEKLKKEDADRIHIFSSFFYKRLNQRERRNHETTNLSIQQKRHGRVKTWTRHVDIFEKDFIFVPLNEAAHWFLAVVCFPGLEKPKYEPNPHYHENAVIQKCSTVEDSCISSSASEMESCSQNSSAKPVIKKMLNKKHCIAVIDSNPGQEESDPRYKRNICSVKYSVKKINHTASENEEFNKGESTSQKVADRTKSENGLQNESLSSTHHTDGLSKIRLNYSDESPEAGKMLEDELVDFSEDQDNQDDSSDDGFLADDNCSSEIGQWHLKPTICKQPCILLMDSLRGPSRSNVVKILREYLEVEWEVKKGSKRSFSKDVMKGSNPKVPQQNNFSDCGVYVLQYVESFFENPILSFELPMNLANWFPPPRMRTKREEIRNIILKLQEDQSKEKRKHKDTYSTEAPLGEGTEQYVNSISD
# [10] = biological target: T4, Sentrin-specific protease 8 (Homo sapiens, UniProt Q96LD8); assay type: functional;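 further: luminescence read-out of SENP8 inhibition, dose-response confirmation following an ultra-high-throughput screen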
# T4 sequence (Q96LD8 whole entry): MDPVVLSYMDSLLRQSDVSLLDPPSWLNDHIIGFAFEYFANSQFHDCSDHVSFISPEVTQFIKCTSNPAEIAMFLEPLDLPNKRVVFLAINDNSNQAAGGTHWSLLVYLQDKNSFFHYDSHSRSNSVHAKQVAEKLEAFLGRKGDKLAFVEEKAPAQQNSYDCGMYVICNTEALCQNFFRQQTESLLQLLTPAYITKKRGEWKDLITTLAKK
# Protein skinhead-1 = biological target: T5, Protein skinhead-1 (Caenorhabditis elegans, UniProt P34707); assay type: functional
# T5 sequence (P34707 whole entry): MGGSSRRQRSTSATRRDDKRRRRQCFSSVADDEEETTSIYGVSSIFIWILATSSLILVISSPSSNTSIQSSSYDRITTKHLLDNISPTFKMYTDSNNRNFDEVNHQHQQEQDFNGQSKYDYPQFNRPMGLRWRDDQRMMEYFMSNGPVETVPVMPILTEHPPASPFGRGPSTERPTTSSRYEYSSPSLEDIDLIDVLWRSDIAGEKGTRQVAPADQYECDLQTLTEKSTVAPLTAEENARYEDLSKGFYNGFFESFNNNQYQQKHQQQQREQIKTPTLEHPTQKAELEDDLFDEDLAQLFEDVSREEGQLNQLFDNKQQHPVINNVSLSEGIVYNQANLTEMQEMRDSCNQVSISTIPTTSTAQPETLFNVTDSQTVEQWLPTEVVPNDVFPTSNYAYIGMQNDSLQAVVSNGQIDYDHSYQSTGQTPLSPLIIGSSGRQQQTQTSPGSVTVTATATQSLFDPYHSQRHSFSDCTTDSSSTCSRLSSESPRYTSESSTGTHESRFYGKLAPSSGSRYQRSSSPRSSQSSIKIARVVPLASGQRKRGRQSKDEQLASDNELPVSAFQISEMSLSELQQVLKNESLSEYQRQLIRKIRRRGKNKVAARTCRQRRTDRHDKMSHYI
# [11] = biological target: T6, Oxysterols receptor LXR-beta (Homo sapiens, UniProt P55055); assay type: functional, cell-based;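 further: Cell-based luminescence dose-response assay of agonist activity at LXR, run as a confirmatory counterscreen to a daf-12 agonist screen; HEK293 cells with Gal4-LXR fusion and GAL4-driven luciferase reporter; agonist potency from rising luciferase signal of a Gal4-LXR reporter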
# T6 sequence (P55055 whole entry): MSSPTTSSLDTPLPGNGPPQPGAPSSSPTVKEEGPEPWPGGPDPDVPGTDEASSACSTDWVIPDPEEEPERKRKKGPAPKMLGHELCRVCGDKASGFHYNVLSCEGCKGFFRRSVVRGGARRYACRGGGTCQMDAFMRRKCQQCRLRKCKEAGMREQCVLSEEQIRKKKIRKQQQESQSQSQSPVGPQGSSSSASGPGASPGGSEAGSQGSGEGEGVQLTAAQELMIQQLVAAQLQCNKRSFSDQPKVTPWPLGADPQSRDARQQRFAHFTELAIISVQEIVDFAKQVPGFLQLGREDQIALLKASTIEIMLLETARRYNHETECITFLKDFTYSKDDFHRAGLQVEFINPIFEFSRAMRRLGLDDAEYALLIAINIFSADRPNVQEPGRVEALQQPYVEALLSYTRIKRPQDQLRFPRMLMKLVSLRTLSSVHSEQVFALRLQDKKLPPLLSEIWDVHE
# Kallikrein-7 = Kallikrein-7 (Homo sapiens, UniProt P49862); assay: Fluorescence Intensity-based biochemical primary high throughput dose response assay to identify activators of kallikrein-7 (K7) zymogen.
# Paired box protein Pax-8 = Paired box protein Pax-8 (Homo sapiens, UniProt Q06710); assay: inhibitors of PAX8-driven TPO luciferase reporter, dose response, RMG-I cells, cherry-pick (AID 687027); assay type: functional, cell-based;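 further: luciferase reporter driven by Pax8 target thyroperoxidase promoter measured by SteadyGlo luminescence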
# [12] = A2780 ovarian cancer cell cytotoxicity, dose response, cytotoxicity control, plate reader, dry powder samples (AID 743046); assay type: functional, cell-based
# [13] = P. falciparum Dd2 growth inhibitors, dose response, SYBR Green, cherry-picked samples (AID 1159567); assay type: functional, cell-based
# [14] = HepG2 cell cytotoxicity, dose response, cytotoxicity control, cherry-picked samples (AID 1159577); assay type: functional, cell-based
# [15] = P. falciparum 3D7-ScDHODH growth inhibitors, dose response, SYBR Green, dry powder samples (AID 1159570); assay type: functional, cell-based;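 further: parasite growth measured after 72 hours of compound exposure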
# [16] = HepG2 cell cytotoxicity, dose response, cytotoxicity control, plate reader, dry powder samples (AID 1159569); assay type: functional, cell-based;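 further: inhibitor potency with signal falling toward the positive control level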
# [17] = P. falciparum Dd2 growth inhibitors, dose response, SYBR Green, dry powder samples (AID 1159566); assay type: functional, cell-based;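 further: potency for growth inhibition with lower SYBR green DNA signal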
# [18] = P. falciparum ATP4 D1247Y mutant growth inhibitors, dose response, NITD609-resistant line, SYBR Green, dry powder (AID 1159571); assay type: functional, cell-based;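 further: parasites synchronized at ring stage by sorbitol before testing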
# Chain of Kallikrein-7 (P49862 whole entry): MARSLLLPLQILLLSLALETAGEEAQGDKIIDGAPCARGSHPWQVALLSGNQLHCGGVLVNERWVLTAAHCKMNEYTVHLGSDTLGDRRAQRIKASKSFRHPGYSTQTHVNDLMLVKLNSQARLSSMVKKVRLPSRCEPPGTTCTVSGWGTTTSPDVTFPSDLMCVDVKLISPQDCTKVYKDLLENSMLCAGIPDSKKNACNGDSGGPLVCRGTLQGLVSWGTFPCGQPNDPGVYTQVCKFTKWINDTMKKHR
# Chain of Paired box protein Pax-8 (Q06710 whole entry): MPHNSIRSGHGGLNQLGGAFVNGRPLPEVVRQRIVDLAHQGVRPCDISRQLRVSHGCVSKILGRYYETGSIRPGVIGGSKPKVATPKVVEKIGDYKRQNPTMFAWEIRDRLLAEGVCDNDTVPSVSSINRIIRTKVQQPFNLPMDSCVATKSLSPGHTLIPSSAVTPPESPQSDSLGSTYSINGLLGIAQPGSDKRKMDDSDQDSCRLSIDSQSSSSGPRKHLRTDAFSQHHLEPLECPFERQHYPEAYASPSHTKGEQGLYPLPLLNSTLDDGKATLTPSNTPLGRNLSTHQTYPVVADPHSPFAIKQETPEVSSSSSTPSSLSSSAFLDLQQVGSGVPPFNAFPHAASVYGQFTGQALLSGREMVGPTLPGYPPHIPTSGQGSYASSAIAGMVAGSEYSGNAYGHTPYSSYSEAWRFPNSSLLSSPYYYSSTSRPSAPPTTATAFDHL
smiles,measurement,setting,value
CNS(=O)(=O)Cc1ccc2[nH]cc(CCN(C)C)c2c1,IC50,[1],> 6.67 µM (inactive)
same,IC50,[2],> 20 µM (inactive)
same,IC50,[3],> 20 µM (inactive)
same,IC50,[4],> 20 µM (inactive)
same,IC50,[5],> 20 µM (inactive)
same,IC50,[6],> 20 µM (inactive)
same,IC50,[7],> 20 µM (inactive)
Cc1ccccc1-c1nc(-c2ccc(Br)o2)no1,IC50,Caspase-3,17 µM (active)
same,IC50,[8],4.23 µM (active)
same,IC50,[9],23.5 µM (active)
same,IC50,[10],35.8 µM (active)
same,IC50,Protein skinhead-1,39.7 µM (active)
same,EC50,[11],> 67.6 µM (inactive)
same,EC50,cells,> 67.6 µM (inactive)
CC1=NN(C(N)=S)C(=O)C1N=Nc1ccc(C)cc1C (stereo not drawn),EC50,[11],> 67.5 µM (inactive)
same,EC50,cells,> 67.5 µM (inactive)
CCOC(=O)CC(=O)CSc1nc(C)cc(-c2cccnc2)c1C#N,EC50,Kallikrein-7,8.07 µM (active)
Cc1cc(C)n2cc(CSCc3ccccc3)nc2n1,EC50,Kallikrein-7,49.5 µM (inactive)
COc1cccc(-c2nc(-c3ccccc3)no2)c1,EC50,[11],> 67.6 µM (inactive)
same,EC50,cells,> 67.6 µM (inactive)
C[C@H](CO)N1C[C@H](C)[C@@H](CN(C)Cc2ccc(Cl)c(Cl)c2)OCCCC[C@H](C)Oc2ccc(NS(=O)(=O)c3ccccc3)cc2C1=O,AC50,Paired box protein Pax-8,17.5 µM (active)
same,AC50,[12],< 0.26 µM (active)
CCOc1ccc(-c2cc(C(=O)N3CCN(C)CC3)c3ccccc3n2)cc1,EC50,Kallikrein-7,> 69.5 µM (inactive)
CC(C)CC#Cc1ccc([C@@H]2[C@@H](CO)N3CCCCN(S(=O)(=O)Cc4ccccc4)C[C@@H]23)cc1,AC50,[13],5.76 µM (active)
same,AC50,[14],> 39 µM (inactive)
COc1ccc2c3c([nH]c2c1)[C@H](CO)N(C(=O)C1CCCC1)CC31CCN(Cc2cccc(F)c2)CC1,AC50,[13],3.49 µM (active)
same,AC50,[14],9.75 µM (active)
COc1cccc(NC(=O)N(C)C[C@@H]2Oc3cc(C#Cc4ccccc4)ccc3S(=O)(=O)N([C@H](C)CO)C[C@@H]2C)c1,AC50,[15],0.975 µM (active)
same,AC50,[16],> 100 µM (inactive)
same,AC50,[13],1.19 µM (active)
same,AC50,[17],0.539 µM (active)
same,AC50,[18],0.74 µM (active)
COc1ccc2c3c(n(C)c2c1)[C@H](CO)NCC31CCN(Cc2ccc(-c3ccccn3)cc2)CC1,AC50,[15],0.265 µM (active)
same,AC50,[16],20 µM (active)
same,AC50,[13],0.322 µM (active)
same,AC50,[17],0.135 µM (active)
same,AC50,[14],20.3 µM (active)
same,AC50,[18],0.222 µM (active)
